Results: BigSolDB 2.1

Cc1ccc(S(N)(=O)=O)cc1
solubility (mole fraction)
Conditions	283.15 K	288.15 K	293.15 K	298.15 K	303.15 K	308.15 K	313.15 K	318.15 K
in acetonitrile	0.078	0.0848	0.0955	0.106	0.118	0.13	0.143	0.159
in ethanol	0.0344	0.0392	0.0448	0.0524	0.0608	0.0701	0.0801	0.0914
in ethyl acetate	0.0728	0.0786	0.0859	0.0946	0.104	0.114	0.123	0.133
in isopropanol	0.0203	0.0232	0.0267	0.0306	0.0347	0.0392	0.0445	0.0509
in methanol	0.0441	0.0505	0.0569	0.0648	0.073	0.0827	0.0932	0.104
in n-butanol	0.0242	0.028	0.0316	0.0358	0.0403	0.0452	0.0501	0.0565
in n-propanol	0.0272	0.0313	0.0358	0.0415	0.047	0.0542	0.0611	0.0689

Cc1ccccc1S(N)(=O)=O
solubility (mole fraction)
Conditions	283.15 K	288.15 K	293.15 K	298.15 K	303.15 K	308.15 K	313.15 K	318.15 K
in acetonitrile	0.0337	0.0375	0.0423	0.0475	0.0534	0.0597	0.0669	0.0737
in ethanol	0.0242	0.0266	0.0293	0.0321	0.035	0.0384	0.042	0.0456
in ethyl acetate	0.0497	0.053	0.0566	0.0604	0.0644	0.0687	0.0729	0.0775
in isopropanol	0.0198	0.022	0.0246	0.0276	0.0305	0.0337	0.0374	0.0414
in methanol	0.0277	0.0305	0.0341	0.0378	0.0425	0.0473	0.0526	0.0579
in n-butanol	0.0209	0.0232	0.0257	0.0286	0.0316	0.0348	0.0382	0.0421
in n-propanol	0.0226	0.0249	0.0274	0.0301	0.0331	0.0361	0.0394	0.0427
